The assay addresses T1, Human IP6K1 (Homo sapiens, UniProt Q92551).
T1 construct: GST (N, cleaved yes); made in house; host or cells: C43 E. coli, pGEX-6P-2
In words: IP6K1 high-throughput screen of the Sigma LOPAC (ADP-Glo Max, single point).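 Note: final compound concentration 10µM in 5% DMSO.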 It is filed as biochemical.

The mark [1] stands for this setting: LOPAC single-point screen, ADP-Glo Max raw signal per well.
The mark [2] stands for this setting: LOPAC single-point screen, Z-score from raw signal with plate average and StDev.
Where [3] appears, read: Sigma LOPAC single-point screen, ADP-Glo Max raw signal per well.
[4] abbreviates: Sigma LOPAC single-point screen, Z-score from plate average and StDev.
The mark [5] stands for this setting: LOPAC single-point screen, ADP-Glo Max luminescence raw signal per well.
Setting [6] is: LOPAC single-point screen, Z-score relative to plate average and StDev.
Setting [7] is: LOPAC single-point screen, Z-score against plate average and StDev.

Where a name gives a salt, the structure may show the parent alone. Read-outs that look alike come from different tables or passages of the source.

T1 sequence (Q92551 whole entry): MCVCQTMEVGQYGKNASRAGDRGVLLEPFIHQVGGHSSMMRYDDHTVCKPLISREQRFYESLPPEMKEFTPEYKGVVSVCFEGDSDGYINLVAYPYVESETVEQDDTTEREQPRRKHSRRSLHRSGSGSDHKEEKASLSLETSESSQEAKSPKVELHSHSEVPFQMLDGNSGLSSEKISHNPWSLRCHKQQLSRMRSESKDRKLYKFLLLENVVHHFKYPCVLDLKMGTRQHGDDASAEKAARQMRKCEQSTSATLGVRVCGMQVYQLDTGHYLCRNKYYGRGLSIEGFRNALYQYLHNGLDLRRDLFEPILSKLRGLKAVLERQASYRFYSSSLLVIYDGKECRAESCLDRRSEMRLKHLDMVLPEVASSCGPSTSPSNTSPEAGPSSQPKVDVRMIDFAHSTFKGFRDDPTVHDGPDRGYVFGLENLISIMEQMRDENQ

As to `CC(C)NCC(O)COc1cccc2ccccc12.Cl` (racemic) [(±)-Propranolol hydrochloride], the “Raw Signal” value under setting [1] amounted to 53827. The molecule further gave a Z-score under setting [2] of -0.09519.

Consider `Cc1cn([C@H]2C[C@H](N=[N+]=[N-])[C@@H](CO)O2)c(=O)[nH]c1=O` [3 -Azido-3 -deoxythymidine], for which the “Raw Signal” value under setting [3] came to 61635. Also, the Z-score under setting [4] is 0.6555.

Take `N[C@@H]1CON=C1O` [D-Cycloserine]: the “Raw Signal” value under setting [1] came to 55913. Under setting [2], this molecule gave a Z-score of -0.3523.

With `COC(=O)[C@@H](N)CCCN=C(N)N[N+](=O)[O-].Cl`, under setting [3], the “Raw Signal” value is 58464. This molecule also had a Z-score under setting [4] of 0.6839.

For `COc1ccc2c(c1O)-c1cccc3c1[C@@H](C2)N(C)CC3.Cl` [R(-)-Apocodeine hydrochloride], under setting [5], the “Raw Signal” value was determined as 50869. This molecule showed a Z-score under setting [6] of -0.8729.

`NCCS(=O)O` [Hypotaurine]: the “Raw Signal” value under setting [1] is 53524. The molecule also yielded a Z-score under setting [2] of -0.3337.

For the molecule `Cl.O=C(O)C1=CCCN(CCON=C(c2ccccc2)c2ccccc2)C1` [NO-711 hydrochloride], the “Raw Signal” value under setting [3] is 58704. For the same molecule, the Z-score under setting [4] is given as 0.7243.

Consider `Cc1ccccc1CNc1ncnc2c1ncn2[C@@H]1O[C@H](CO)[C@@H](O)[C@H]1O` [Metrifudil], for which, under setting [1], the “Raw Signal” value came to 54359. The same molecule displayed a Z-score under setting [7] of -0.005798.

Take LY-310,762 hydrochloride: under setting [1], the “Raw Signal” value is reported as 55045. Besides, under setting [7], the Z-score was 0.1095.

For the molecule `N[C@H](CCCCCP(=O)(O)O)C(=O)O` [D(-)-2-Amino-7-phosphonoheptanoic acid], the “Raw Signal” value under setting [3] worked out at 62778. Under setting [4], this molecule showed a Z-score of 0.8568.

As for `OCCN1CCN(CC/C=C2/c3ccccc3Sc3ccc(C(F)(F)F)cc32)CC1` [cis-(Z)-Flupenthixol dihydrochloride], under setting [1], the “Raw Signal” value was 56412. Under setting [7], this molecule gave a Z-score of 0.2528.

As to `Cc1cccc(C)c1N=C1NCCCS1` [Xylazine hydrochloride], the “Raw Signal” value is 56727 and the Z-score is 0.1366.

As for `Cc1[nH]c2ccc(O)cc2c1CCN.O=C(O)/C=C\C(=O)O` [2-Methyl-5-hydroxytryptamine maleate], under setting [1], the “Raw Signal” value is recorded as 56336. The molecule further came in with a Z-score under setting [7] of 0.3264.

As for `COC(=O)C1=C(C)NC(C)=C(C(=O)OC)C1c1ccccc1[N+](=O)[O-]` [Nifedipine], the “Raw Signal” value under setting [3] was 59653. This molecule also gave a Z-score under setting [4] of 0.8837.

Regarding `CC(=O)NCCc1c[nH]c2ccc(O)cc12` [N-Acetyl-5-hydroxytryptamine], under setting [5], the “Raw Signal” value was 55051. Under setting [6], this molecule showed a Z-score of -0.5041.

On to `CCn1cc(C(=O)O)c(=O)c2cc3c(cc21)OCO3` [Oxolinic acid], for which, under setting [3], the “Raw Signal” value worked out at 60270. For the same molecule, the Z-score under setting [4] came out at 0.9874.

As to `Nc1nc(SCc2ccc([N+](=O)[O-])cc2)c2ncn([C@@H]3O[C@H](CO)[C@@H](O)[C@H]3O)c2n1` [S-(4-Nitrobenzyl)-6-thioguanosine], the “Raw Signal” value under setting [3] was 63053. The molecule also showed a Z-score under setting [4] of 0.9053.

With `CN(C)C(=O)Oc1ccc[n+](C)c1` [Pyridostigmine bromide], the “Raw Signal” value under setting [1] is recorded as 56672. In addition, the Z-score under setting [7] is given as 0.1259.

With `Clc1cccc(Cl)c1N=C1NCCN1` [Clonidine hydrochloride], the “Raw Signal” value under setting [5] is recorded as 54432. Besides, the Z-score under setting [6] is recorded as -0.6131.

Regarding Adenosine 3 ,5 -cyclic monophosphate, the “Raw Signal” value was 66195 and the Z-score came out at 1.459.

Regarding `OC[C@H]1NC[C@@H](O)[C@@H]1O` [1,4-Dideoxy-1,4-imino-D-arabinitol], under setting [1], the “Raw Signal” value was found to be 54688. Moreover, the Z-score under setting [2] is on record as -0.09729.

Regarding `N[C@@H](Cc1c[nH]c2ccc(O)cc12)C(=O)O` [5-Hydroxy-L-tryptophan], the “Raw Signal” value under setting [3] is recorded as 60622. For the same molecule, under setting [4], the Z-score was 1.108.

Consider `O=Nc1ccc2oc(=O)ccc2c1` [6-Nitroso-1,2-benzopyrone], for which the “Raw Signal” value under setting [3] amounted to 57563. In addition, the Z-score under setting [4] was 0.5326.

In the case of `NS(=O)(=O)c1cccc2c1c([N+](=O)[O-])cc1nc([O-])c([O-])nc12.[Na+].[Na+]` [NBQX disodium], the “Raw Signal” value under setting [1] was found to be 52080. The same molecule had a Z-score under setting [2] of -0.3887.

Take `CC(=O)S[C@@H]1CC2=CC(=O)CC[C@]2(C)[C@H]2CC[C@@]3(C)[C@@H](CC[C@@]34CCC(=O)O4)[C@H]12` [Spironolactone]: the “Raw Signal” value under setting [5] was 50910. Under setting [6], this molecule gave a Z-score of -0.9935.

Consider `C[C@@H]1OC[C@H](C[N+](C)(C)C)O1.[I-]` [(+)-cis-Dioxolane iodide], for which the “Raw Signal” value under setting [1] amounted to 55108. Under setting [7], this molecule came in with a Z-score of -0.01199.

With `O=[N+]([O-])c1cc2nc(O)c(O)nc2cc1[N+](=O)[O-]` [DNQX], the “Raw Signal” value under setting [5] is 50774. Also, the Z-score under setting [6] is listed as -0.8922.

Turning to `CC[C@H](C)[C@H]1O[C@]2(CC[C@@H]1C)C[C@@H]1C[C@@H](C/C=C(\C)[C@@H](O[C@H]3C[C@H](OC)[C@@H](O[C@H]4C[C@H](OC)[C@@H](O)[C@H](C)O4)[C@H](C)O3)[C@@H](C)/C=C/C=C3\CO[C@@H]4[C@H](O)C(C)=C[C@@H](C(=O)O1)[C@]34O)O2` [Ivermectin], the “Raw Signal” value under setting [1] came to 51728. The Z-score under setting [2] is -0.4479.

As for `N=C(NCCC[C@H](N)C(=O)O)N[N+](=O)[O-]` [NG-Nitro-L-arginine], the “Raw Signal” value under setting [3] is recorded as 57372. Further, the Z-score under setting [4] was 0.5005.

With `Cl.NO` [Hydroxylamine hydrochloride], the “Raw Signal” value under setting [5] is 61813. The same molecule showed a Z-score (LOPAC single-point screen, Z-score from plate average and StDev) of 1.35.

Consider `CN1C2CCC1CC(NC(=O)c1nn(C)c3ccccc13)C2.O=C(O)/C=C\C(=O)O` (stereo not shown) [LY-278,584 maleate], for which the “Raw Signal” value under setting [5] was 49124. The Z-score under setting [6] was -0.8854.

Consider `CO/N=C(\C(=O)N[C@@H]1C(=O)N2C(C(=O)O)=C(COC(C)=O)CS[C@H]12)c1csc(N)n1` [Cefotaxime sodium], for which, under setting [5], the “Raw Signal” value came out at 53540. Further, the Z-score under setting [6] is listed as -0.7702.

As for `C[C@H]1O[C@@H](n2cc(F)c(=O)[nH]c2=O)[C@H](O)[C@@H]1O` [5-fluoro-5-deoxyuridine], the “Raw Signal” value under setting [1] turned out to be 53997. Further, the Z-score under setting [2] is on record as -0.2376.

`Br.Cc1cccc(C2CN(C)CCc3c2cc(O)c(O)c3Cl)c1` (stereo not shown) [SKF 83959 hydrobromide]: under setting [5], the “Raw Signal” value was found to be 52693. This molecule returned a Z-score under setting [6] of -0.6471.

As for `Br.Oc1cc2c(c(Cl)c1O)CCNCC2c1ccccc1` (racemic) [(±)-6-Chloro-PB hydrobromide], the “Raw Signal” value under setting [1] is 55203. For the same molecule, the Z-score under setting [2] is -0.1595.

`COc1cccc2c1[C@@H]1CN(CCCCn3c(=O)[nH]c4c(sc5ncc(-c6ccccc6)nc54)c3=O)C[C@@H]1CO2` [Fiduxosin hydrochloride]: the “Raw Signal” value under setting [1] is 56814. Under setting [7], this molecule gave a Z-score of 0.3345.

`Cn1cnc2c(NC3CCCC3)ncnc21` [N6-Cyclopentyl-9-methyladenine]: under setting [1], the “Raw Signal” value was found to be 52967. For the same molecule, under setting [2], the Z-score is on record as -0.2397.

With `C1CNCCN1.COc1cc(C(O)CO)ccc1O.COc1cc(C(O)CO)ccc1O` (stereo not shown) [MHPG piperazine], the “Raw Signal” value under setting [3] is 58694. The molecule also gave a Z-score under setting [4] of 0.7163.

Values taken from article PMC5706701, “Development of a homogenous high-throughput assay for inositol hexakisphosphate kinase 1 activity” (PLoS ONE, 2017).
